One series concerns Asteraceae. Kind of series: Herbicidal activity against Aspilia africana in Corchorus olitorius plots assessed as weed cover at 0.66 kg a.i/ha after 7 weeks (reference value: 1.7 +/- 0.56 %). The series is classed as functional.
Series [1] relates to Synedrella nodiflora. Nature of the series: Herbicidal activity against Synedrella nodiflora in Corchorus olitorius plots assessed as weed cover at 1.32 kg a.i/ha after 2 weeks (reference value: 81.7 +/- 0.43 %). The series is classed as functional.
Series [2] has as its system Synedrella nodiflora. Kind of series: Herbicidal activity against Synedrella nodiflora in Corchorus olitorius plots assessed as weed cover at 0.66 kg a.i/ha after 4 weeks (reference value: 20.1+/- 0.57 %). The series is classed as functional.
The test system of series [3] is Calopogonium mucunoides. Kind of series: Herbicidal activity against Calopogonium mucunoides in Corchorus olitorius plots assessed as weed cover at 1.32 kg a.i/ha after 2 weeks (reference value: 81.7 +/- 0.43 %). It is filed as functional.
For series [4], the system named is Synedrella nodiflora. Kind of series: Herbicidal activity against Synedrella nodiflora in Corchorus olitorius plots assessed as weed recovery at 0.66 kg a.i/ha after 2 weeks (reference value: 78.3 +/- 0.74 %). The series is classed as functional.
The test system of series [5] is Calopogonium mucunoides. Kind of series: Herbicidal activity against Calopogonium mucunoides in Corchorus olitorius plots assessed as weed recovery at 0.66 kg a.i/ha after 2 weeks (reference value: 78.3 +/- 0.74 %). The series is classed as functional.
The next series relates to Commelina diffusa. Kind of series: Herbicidal activity against Commelina diffusa in Abelmoschus esculentus plots assessed as weed recovery at 0.66 kg a.i/ha after 2 weeks (reference value: 60.1 +/- 0.46 %). It is filed as functional.
The test system of series [6] is Euphorbia heterophylla. Kind of series: Herbicidal activity against Euphorbia heterophylla in Abelmoschus esculentus plots assessed as weed cover at 0.66 kg a.i/ha after 4 weeks (reference value: 22.6 +/- 0.49 %). It is filed as functional.
The subject of series [7] is Euphorbia heterophylla. Nature of the series: Herbicidal activity against Euphorbia heterophylla in Abelmoschus esculentus plots assessed as major weed growth at 0.66 kg a.i/ha after 2 weeks. The series is classed as functional.
The test system of series [8] is Calopogonium mucunoides. Kind of series: Herbicidal activity against Calopogonium mucunoides in Abelmoschus esculentus plots assessed as major weed growth at 0.33 kg a.i/ha after 2 weeks. It is filed as functional.
The test system of series [9] is Calopogonium mucunoides. Nature of the series: Herbicidal activity against Calopogonium mucunoides in Abelmoschus esculentus plots assessed as weed cover at 0.99 kg a.i/ha after 4 weeks (reference value: 22.6 +/- 0.49 %). The series is classed as functional.
Series [10] deals with Corchorus olitorius. Kind of series: Phytotoxicity in Corchorus olitorius assessed as seedling emergence at 0.99 kg a.i/ha treated to soil after 7 weeks (reference value: 95 +/- 0.05 %). It is filed as organism-based. Particulars: in vivo, other, 1176 h.
Another series relates to Talinum fruticosum. Kind of series: Herbicidal activity against Talinum fruticosum in Abelmoschus esculentus plots assessed as minor weed growth at 0.99 kg a.i/ha after 2 weeks. The series is classed as functional.
Series [11] deals with Corchorus olitorius. Nature of the series: Phytotoxicity in Corchorus olitorius assessed as crop seedling injury at 0.33 kg a.i/ha after 2 weeks relative to untreated control. The series is classed as organism-based. As to conditions: in vivo, 336 h.

As to `CCC(CC)Nc1c([N+](=O)[O-])cc(C)c(C)c1[N+](=O)[O-]` [PENDIMETHALIN], the Activity in the series with Asteraceae is on record as 100%; in the series with Synedrella nodiflora [1], 41.7%; in the series on Synedrella nodiflora [2] it was 63.3%; in the series on Calopogonium mucunoides [3], 41.7%; in the series with Synedrella nodiflora [4], 33.3%; in the series with Calopogonium mucunoides [5] it was 33.3%. The Activity was 47.9% in the series on Commelina diffusa; 47.9% with Euphorbia heterophylla [6]; 31 /m2 in the series on Euphorbia heterophylla [7]; 31 /m2 in the series with Calopogonium mucunoides [8]; 39.2% with Calopogonium mucunoides [9]; 86.7% in the series on Corchorus olitorius [10]. For the same compound, the Activity is given as 1 /m2 in the series with Talinum fruticosum and 41.7% in the series with Corchorus olitorius [11].
